Biological target: T1, IRAK4 (Homo sapiens, UniProt Q9NWZ3)
T1 sequence (Q9NWZ3 1-460): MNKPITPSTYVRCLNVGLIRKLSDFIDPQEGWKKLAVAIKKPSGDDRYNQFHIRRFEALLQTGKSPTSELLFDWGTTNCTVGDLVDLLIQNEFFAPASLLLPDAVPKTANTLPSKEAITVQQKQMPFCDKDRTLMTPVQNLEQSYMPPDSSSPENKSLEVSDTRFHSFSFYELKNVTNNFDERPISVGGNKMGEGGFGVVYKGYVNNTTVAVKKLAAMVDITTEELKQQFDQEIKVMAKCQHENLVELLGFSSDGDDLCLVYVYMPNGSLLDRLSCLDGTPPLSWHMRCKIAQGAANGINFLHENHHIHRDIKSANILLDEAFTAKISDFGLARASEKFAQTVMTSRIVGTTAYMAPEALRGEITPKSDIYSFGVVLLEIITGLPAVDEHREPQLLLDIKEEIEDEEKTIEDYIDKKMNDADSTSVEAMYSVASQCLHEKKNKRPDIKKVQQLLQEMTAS
Test: PBMC degradation assay (western blot, % IRAK4 degraded after 4 hours)
Assay type: cell-based
Conditions: human PBMCs
Procedure: Protocol summary of PBMC degradation studies from compound treatment through quantitation.
PBMC culture medium: Human peripheral blood mononuclear cells (PBMCs): RPMI+10% FBS (Heat-inactivated)+1% P/S.
Cells were cultured at a minimum of 2.5×10^6 c/mL. • PBMCs were incubated @ 37° C./5% CO2 and allowed to rest overnight. • Following overnight recovery, a cell count/viability assessment by trypan blue exclusion was performed. Cells densities were adjusted back to 2.5×10^6 c/mL (proceed with plating only if viability >80%). • In a 6 well plate, 2.0 mL of cells were added to each well for a minimum of 5×10^6 CT per treatment condition. Compounds dilutions were prepared from 20 mM stock and were added at a final 1000× dilution (0.1% DMSO concentration). • At the end of treatment, cells were harvested and spun @ 1800 rpm for 5 min. 1×PBS wash and spun again @ 1800 rpm for 5 min. Cell pellets were frozen and stored at −80° C. until further processing. • Lysates were generated by resuspending in lysis buffer. Protein quantification was performed with a BCA kit. • 20 μg of protein were loaded per lane and run on a 26-well 4-12% Bis-Tris SDS-page gel. • Transfers were performed on PVDF membranes using the BioRad Mixed MW turbo program for 7 min. • Membranes were blocked for one hour on a rocker at room temperature. • Primary antibodies were incubated overnight at 4° C. on a rocker. • Membranes were washed 3×TBST, 5 min each. • Secondaries were added and incubated for one hour on a rocker at room temperature. • Membranes were washed 3×TBST, 5 min each and rinsed well with deionized H2O. Membranes were scanned using the Licor Odessey CLx and bands were quantified using Image Studio Lite Version 5.2 software.
PBMC results at 4 hours. The letter codes indicate the percentage of IRAK4 degraded after 4 hours: A (>50% degradation), B (>20-50% degradation) and C (<20% degradation)

With `NC(=O)c1nn(-c2ccc(C(=O)NCCNCCCCCNc3cccc4c3C(=O)N(C3CCC(=O)NC3=O)C4=O)cc2)cc1NC(=O)c1coc(-c2ccnc(NCC(F)(F)F)c2)n1` (centres unmarked) [I-144, N-[3-carbamoyl-1-[4-[2-[5-[[2-(2,6-dioxo-3-piperidyl)-1,3-dioxo-isoindolin-4-yl]amino]pentylamino]ethylcarbamoyl]phenyl]pyrazol-4-yl]-2-[2-(2,2,2-trifluoroethylamino)-4-pyridyl]oxazole-4-carboxamide] the “PBMC % IRAK4 Degradation” value was “A (>50% degradation)”.
In the case of `NC(=O)c1nn(C2CCN(C(=O)NCCOCCOCCNc3cccc4c3C(=O)N(C3CCC(=O)NC3=O)C4=O)CC2)cc1NC(=O)c1coc(-c2ccnc(NCC(F)(F)F)c2)n1` (centres unmarked) [I-145, N-[3-carbamoyl-1-[1-[2-[2-[2-[[2-(2,6-dioxo-3-piperidyl)-1,3-dioxo-isoindolin-4-yl]amino]ethoxy]ethoxy]ethylcarbamoyl]-4-piperidyl]pyrazol-4-yl]-2-[2-(2,2,2-trifluoroethylamino)-4-pyridyl]oxazole-4-carboxamide], the “PBMC % IRAK4 Degradation” value is reported as “C (<20% degradation)”.
With `O=C1CCC(N2C(=O)c3cccc(NCCNCCCCCNC(=O)c4ccc(-n5cc(NC(=O)c6coc(-c7ccnc(NCC8CC8)c7)n6)c(C(F)(F)F)n5)cc4)c3C2=O)C(=O)N1` (centres unmarked) [I-150] the “PBMC % IRAK4 Degradation” value was “A (>50% degradation)”.
With `NC(=O)c1nn(C2CCN(C(=O)COCCOCCOCCNc3cccc4c3C(=O)N(C3CCC(=O)NC3=O)C4=O)CC2)cc1NC(=O)c1coc(-c2ccnc(NCC(F)(F)F)c2)n1` (centres unmarked) [I-152, N-[3-carbamoyl-1-[1-[2-[2-[2-[2-[[2-(2,6-dioxo-3-piperidyl)-1,3-dioxo-isoindolin-4-yl]amino]ethoxy]ethoxy]ethoxy]acetyl]-4-piperidyl]pyrazol-4-yl]-2-[2-(2,2,2-trifluoroethylamino)-4-pyridyl]oxazole-4-carboxamide] the “PBMC % IRAK4 Degradation” value was “C (<20% degradation)”.
`NC(=O)c1nn(C2CCN(C(=O)COCCOCCNc3cccc4c3C(=O)N(C3CCC(=O)NC3=O)C4=O)CC2)cc1NC(=O)c1coc(-c2ccnc(NCC(F)(F)F)c2)n1` (centres unmarked) [I-154] was tested, and the “PBMC % IRAK4 Degradation” value was “B (>20-50% degradation)”.
For `NC(=O)c1nn(C2CCN(C(=O)COCCOCCOCCOCCNc3cccc4c3C(=O)N(C3CCC(=O)NC3=O)C4=O)CC2)cc1NC(=O)c1coc(-c2ccnc(NCC(F)(F)F)c2)n1` (centres unmarked) [I-155], the “PBMC % IRAK4 Degradation” value was “C (<20% degradation)”.
`NC(=O)c1nn(C2CN(C(=O)COCCOCCNc3cccc4c3C(=O)N(C3CCC(=O)NC3=O)C4=O)C2)cc1NC(=O)c1coc(-c2ccnc(NCC(F)(F)F)c2)n1` (centres unmarked) [I-156] was tested, and the “PBMC % IRAK4 Degradation” value was “C (<20% degradation)”.
With `NC(=O)c1nn(C2CN(C(=O)COCCOCCOCCOCCNc3cccc4c3C(=O)N(C3CCC(=O)NC3=O)C4=O)C2)cc1NC(=O)c1coc(-c2ccnc(NCC(F)(F)F)c2)n1` (centres unmarked) [I-157] the “PBMC % IRAK4 Degradation” value was “C (<20% degradation)”.
In the case of `NC(=O)c1nn(C2CN(C(=O)COCCOCCOCCNc3cccc4c3C(=O)N(C3CCC(=O)NC3=O)C4=O)C2)cc1NC(=O)c1coc(-c2ccnc(NCC(F)(F)F)c2)n1` (centres unmarked) [I-158], the “PBMC % IRAK4 Degradation” value is reported as “C (<20% degradation)”.
`CN(CCOCCOCCNc1cccc2c1C(=O)N(C1CCC(=O)NC1=O)C2=O)C(=O)c1ccc(-n2cc(NC(=O)c3coc(-c4ccnc(NCC(F)(F)F)c4)n3)c(C(N)=O)n2)cc1` (centres unmarked) [I-159, N-[3-carbamoyl-1-[4-[2-[2-[2-[[2-(2,6-dioxo-3-piperidyl)-1,3-dioxo-isoindolin-4-yl]amino]ethoxy]ethoxy]ethyl-methyl-carbamoyl]phenyl]pyrazol-4-yl]-2-[2-(2,2,2-trifluoroethylamino)-4-pyridyl]oxazole-4-carboxamide] was tested, and the “PBMC % IRAK4 Degradation” value was “A (>50% degradation)”.
`NC(=O)c1nn(-c2ccc(CNCCOCCOCCNc3cccc4c3C(=O)N(C3CCC(=O)NC3=O)C4=O)cc2)cc1NC(=O)c1coc(-c2ccnc(NCC(F)(F)F)c2)n1` (centres unmarked) [I-171, N-[3-carbamoyl-1-[4-[[2-[2-[2-[[2-(2,6-dioxo-3-piperidyl)-1,3-dioxo-isoindolin-4-yl]amino]ethoxy]ethoxy]ethylamino]methyl]phenyl]pyrazol-4-yl]-2-[2-(2,2,2-trifluoroethylamino)-4-pyridyl]oxazole-4-carboxamide] was tested, and the “PBMC % IRAK4 Degradation” value was “A (>50% degradation)”.
